Results: patent publication US11882846B2, “Use of kefir peptide for improving or treating depressive behaviors and related diseases” (National Chung Hsing University, priority 2021, dated 2024)
Structures can show the parent of a compound that is named as a salt.

Tests used:
TrkB = TrkB and p-TrkB protein in hippocampal tissues, western blot; assay type: in vivo, mice; conditions: oral treatment for 8 days, compared with first group (distilled water)
Description: (§1) Take 5-week-old CD-1 mice, provide standard laboratory animal feed (Altromin, Germany) and distilled water (dH2O), and keep them for 12 hours at 22-24° C. for light/dark cycles. Before starting the test, each group of mice are raised in an experimental animal room for 1 week to adapt to the environment, and then the mice are randomly divided into 4 groups, and the mice in each of the groups are treated and raised for 8 days (referred to as the first day of rearing to the eighth day of rearing) according to the following conditions: • the first group: take distilled water orally; • the second group: take 150 mg/kg milk powder orally; • the third group: take 150 mg/kg kefir fermentation product orally; and • the fourth group: take 10 mg/kg drug trazodone hydrochloride orally.
(§2) After the test, the mice in each of the groups are anesthetized and their hippocampal tissues are isolated, and frozen and preserved for use in subsequent examples.
(§3) Expressions of protein and mRNA in the hippocampal tissues of the mice in each of the groups in Example 2 are assessed by quantitative RT-PCR method and western blot analysis, and the results are shown in FIG. 6 and FIG. 7, respectively.

CD-1 mice [1] = assay: Open field test (OFT); assay type: in vivo; conditions: 8th day of rearing, 30 minutes after oral treatment, 5 minutes in open field; compared with first group (distilled water)
Description: as §1
The mice in each of the groups in Example 2 are treated according to the above conditions for 30 minutes on the 8th day of rearing, and then an open field test is carried out. Specifically, the mice in each of the groups are first placed in an open field (45×45×40 cm) for 5 minutes, their travel paths and travel speeds are observed respectively, and the time it takes to reach the centers and the time spent at a fixed position are calculated.

CD-1 mice [2] = assay: Forced swimming test (FST); assay type: in vivo; conditions: 7th day of rearing, 30 minutes after oral treatment, testing time 6 minutes; kefir fermentation product 150 mg/kg, trazodone hydrochloride 10 mg/kg; average±standard deviation
Description: as §1
The mice in each of the groups of Example 2 are treated for 30 minutes according to the above conditions on the 7th day of rearing, and then a swimming test is carried out, testing time is 6 minutes. Movement and immobility time are measured and analyzed with a camera. The results are shown in FIG. 4, wherein the immobility time is a period of time without active movement but only floating in the water; the movement time is a period of time with active movement or circular movement.

[3] = system: BDNF (brain-derived neurotrophic factor); assay: BDNF mRNA expression in hippocampal tissues, quantitative RT-PCR; assay type: in vivo, mice; conditions: oral treatment for 8 days; compared with first group (distilled water)
Description: as §1, §2, §3

CD-1 mice [4] = assay: Elevated plus maze test (EPMT); assay type: in vivo; conditions: 7th day of rearing, 6 hours after oral treatment, 5 minutes observed; compared with first group (distilled water); 150 mg/kg milk powder or kefir fermentation product, 10 mg/kg trazodone hydrochloride
Description: as §1
The mice in each of the groups of Example 1 are treated for 6 hours according to the above conditions on the 7th day of rearing, and then an elevated plus maze test is performed, and paths of the mice in each of the groups within 5 minutes are observed with a camera. The results are shown in FIGS. 2A to 2D, and the time of the mice in each of the groups spent on open arms or closed arms in the elevated plus maze is analyzed, and the results are shown in FIG. 2E to FIG. 2H.

Erk1/2 = Erk1/2 and p-Erk1/2 protein in hippocampal tissues, western blot; assay type: in vivo, mice; conditions: oral treatment for 8 days, compared with first group (distilled water)
Description: as §1, §2, §3

CD-1 mice [5] = assay: Tail suspension test (TST); assay type: in vivo; conditions: 7th day, 30 minutes after oral treatment, 6 minute test, measured in the last 4 minutes; kefir fermentation product 150 mg/kg, peptides 10 mg/kg; average±standard deviation
Description: Refer to the steps of Example 2, the CD-1 mice are randomly divided into five groups and raised under the following conditions: • the first group: take distilled water orally; • the second group: take 150 mg/kg kefir fermentation product orally; • the third group: take the peptide 1 (10 mg/kg) disclosed in Example 1 orally, and the amino acid sequence is SEQ ID No: 1; • the fourth group: take the peptide 2 (10 mg/kg) disclosed in Example 1 orally, and the amino acid sequence is SEQ ID No: 2; and • the fifth group 5: take the peptide 3 (10 mg/kg) disclosed in Example 1 orally, and the amino acid sequence is SEQ ID No: 3.
When the mice in each of the groups are raised to the 7th day, after 30 minutes of treatment according to the following conditions, a tail suspension test is carried out for 6 minutes, and the immobility time is measured in the last 4 minutes. The results are shown in FIG. 5, wherein the immobility time refers to a period of time in which the mice are suspended and completely still.

Compound	expression level of total TrkB protein in hippocampal tissues (TrkB)	phosphorylation status p-TrkB/TrkB in hippocampal tissues (TrkB; P<0.05)	movement distance in an open field (CD-1 mice [1])	movement speed in an open field (CD-1 mice [1])	time spent at a fixed position in an open field (CD-1 mice [1])	immobility time in swimming test (CD-1 mice [2])	movement time in swimming test (CD-1 mice [2])	expression of BDNF mRNA in hippocampal tissues [3]	paths of the mice in the elevated plus maze (movement to the open arms) (CD-1 mice [4])	expression level of total Erk1/2 protein in hippocampal tissues (Erk1/2)	phosphorylation status p-Erk1/2/Erk1/2 in hippocampal tissues (Erk1/2; P<0.05)	immobility time in tail suspension test (CD-1 mice [5])	movement time in tail suspension test (CD-1 mice [5])
O=c1n(CCCN2CCN(c3cccc(Cl)c3)CC2)nc2ccccn12 [trazodone hydrochloride]	have not change significantly	increases significantly	move a longer distance	move faster	spend less time at a certain fixed position	0.9 ± 0.2 min	3.1 ± 0.3 min	significantly improved	move to the open arms	have not change significantly	increases significantly		
peptide 2: YQEPVLGPVRGPFPI, SEQ ID No: 2; the kefir peptide of the invention, isolated from kefir fermentation product (artificiall obtained)												1.0 ± 0.2 min	3.0 ± 0.2 min
peptide 3: KLHLPLPLVQSWM, SEQ ID No: 3; peptide isolated from kefir fermentation product, can also be chemically synthesized (artificiall obtained)												1.8 ± 0.3 min	2.2 ± 0.3 min
